Reference: publication PMC5078040 (Oncotarget, 2016)

Columns and labels:
PI3Kα = molecular target: T1, PI3Kα (Mus musculus, UniProt P42337); experiment: PI3Ks isoform in cell EC50 assay (AKT phosphorylation, Western Blotting); type: cell-based; details: NIH-3T3, 20ng/ml PDGF-BB, read-out: cellular EC50 PI3K Alpha
T1 construct: endogenous in cells; host or cells: NIH-3T3

PI3Kβ = molecular target: T2, PI3Kβ (Mus musculus, UniProt Q8BTI9); experiment: as above; type: cell-based; details: NIH-3T3, 5μM LPA, read-out: cellular EC50 PI3K Beta
T2 construct: endogenous in cells; host or cells: NIH-3T3

AMO-1 = experiment: Anti-proliferative assay; type: cell-based; details: Homo sapiens, AMO1; AMO-1, MM; 72 hours, CellTiter-Glo
Procedure: (§1) Cells were grown in 96-well culture plates (3000-4000/well). […] Cell proliferation was determined after treatment with compounds for 72 hours. Cell viability was measured using the CellTiter–Glo Assay Kit (Promega, USA), according to the manufacturer's instructions, and luminescence was measured in a multi-label reader (Envision, PerkinElmer, USA). Data were normalized to control groups (DMSO) and represented by the mean of three independent measurements with standard error <20%. GI50 values were calculated using Prism 5.0 (GraphPad Software, San Diego, CA).

CMK = experiment: Anti-proliferative assay; type: cell-based; details: Homo sapiens, AML, 72 hours, CellTiter-Glo
Procedure: as §1

HEL = experiment: Anti-proliferative assay; type: cell-based; details: Homo sapiens, AML-M6, 72 hours, CellTiter-Glo
Procedure: as §1

HL-60 = experiment: Anti-proliferative assay; type: cell-based; details: Homo sapiens; HL-60, AML-M2; 72 hours, CellTiter-Glo
Procedure: as §1

HT = experiment: Anti-proliferative assay; type: cell-based; details: Homo sapiens, B-cell lymphoma, 72 hours, CellTiter-Glo
Procedure: as §1

Hs 505T = experiment: Anti-proliferative assay; type: cell-based; details: Homo sapiens, CLL, 72 hours, CellTiter-Glo
Procedure: as §1

JVM-2 = experiment: Anti-proliferative assay; type: cell-based; details: Homo sapiens; JVM-2, Mantle cell lymphoma; 72 hours, CellTiter-Glo
Procedure: as §1

MEC-1 = experiment: Anti-proliferative assay; type: cell-based; details: Homo sapiens, MEC1; MEC-1, CLL; 72 hours, CellTiter-Glo
Procedure: as §1

MEC-2 = experiment: Anti-proliferative assay; type: cell-based; details: Homo sapiens, MEC2; MEC-2, CLL; 72 hours, CellTiter-Glo
Procedure: as §1

MOLM-13 = experiment: Anti-proliferative assay; type: cell-based; details: Homo sapiens; MOLM-13, AML-M5; 72 hours, CellTiter-Glo
Procedure: as §1

MOLM-14 = experiment: Anti-proliferative assay; type: cell-based; details: Homo sapiens; MOLM-14, AML-M5; 72 hours, CellTiter-Glo
Procedure: as §1

MV4-11 = experiment: Anti-proliferative assay; type: cell-based; details: Homo sapiens; MV4-11, AML; 72 hours, CellTiter-Glo
Procedure: as §1

NALM-6 = experiment: Anti-proliferative assay; type: cell-based; details: Homo sapiens, 72 hours, CellTiter-Glo
Procedure: as §1

NB4 = experiment: Anti-proliferative assay; type: cell-based; details: Homo sapiens; NB4, AML-3; 72 hours, CellTiter-Glo
Procedure: as §1

NOMO-1 = experiment: Anti-proliferative assay; type: cell-based; details: Homo sapiens; NOMO-1, AML-M5; 72 hours, CellTiter-Glo
Procedure: as §1

Namalwa = experiment: Anti-proliferative assay; type: cell-based; details: Homo sapiens, Burrkit lymphoma, 72 hours, CellTiter-Glo
Procedure: as §1

OCI-AML-2 = experiment: Anti-proliferative assay; type: cell-based; details: Homo sapiens, OCI-AML2; OCI-AML-2, AML-M4; 72 hours, CellTiter-Glo
Procedure: as §1

OCI-AML-3 = experiment: Anti-proliferative assay; type: cell-based; details: Homo sapiens; OCI-AML-3, AML-M4; 72 hours, CellTiter-Glo
Procedure: as §1

PF382 = experiment: Anti-proliferative assay; type: cell-based; details: Homo sapiens, PF-382; PF382, ALL; 72 hours, CellTiter-Glo
Procedure: as §1

RPMI8226 = experiment: Anti-proliferative assay; type: cell-based; details: Homo sapiens, RPMI-8226; RPMI8226, MM; 72 hours, CellTiter-Glo
Procedure: as §1

Ramos(new) = experiment: Anti-proliferative assay; type: cell-based; details: Homo sapiens, Burrkit lymphoma, 72 hours, CellTiter-Glo
Procedure: as §1

SKM-1 = experiment: Anti-proliferative assay; type: cell-based; details: Homo sapiens; SKM-1, AML-M5; 72 hours, CellTiter-Glo
Procedure: as §1

U937 = experiment: Anti-proliferative assay; type: cell-based; details: Homo sapiens, U-937; U937, AML; 72 hours, CellTiter-Glo
Procedure: as §1

CLL patient primary cell = experiment: Anti-proliferative efficacy against patient primary cells; type: cell-based; details: Homo sapiens
Procedure: Peripheral blood mononuclear cells (PBMCs) from individuals with CLL were isolated by density centrifugation through Ficoll and frozen for each subject. Those subjects with low white counts whose CLL cell purity was expected to be < 85% underwent B cell isolation using RosetteSep. The protocol was approved by the Dana-Farber Harvard Cancer Center Institutional Review Board and all subjects signed written informed consent prior to participation.
as §1

AML patient primary cell = experiment: as above; type: cell-based; details: Homo sapiens
Procedure: Mononuclear cells were isolated from AML patients. Mononuclear cells were isolated by density gradient centrifugation through Ficoll-Plaque Plus (Amersham Pharmacia Biotech AB, Uppsala, Sweden) at 2000 rpm for 30 minutes, followed by two washes in 1X PBS. Freeze-thawed cells were then cultured in liquid culture (DMEM, supplemented with 20% FBS). All blood and bone marrow samples from AML patients were obtained through written consent under approval of the Dana Farber Cancer Institute Institutional Review Board. The ethics committees approved the consent procedure.
as §1

PI3Kγ = PI3Kγ (Mus musculus, UniProt Q9JHG7); experiment: cell-based
Sequence of PI3Kγ (Q9JHG7 whole entry): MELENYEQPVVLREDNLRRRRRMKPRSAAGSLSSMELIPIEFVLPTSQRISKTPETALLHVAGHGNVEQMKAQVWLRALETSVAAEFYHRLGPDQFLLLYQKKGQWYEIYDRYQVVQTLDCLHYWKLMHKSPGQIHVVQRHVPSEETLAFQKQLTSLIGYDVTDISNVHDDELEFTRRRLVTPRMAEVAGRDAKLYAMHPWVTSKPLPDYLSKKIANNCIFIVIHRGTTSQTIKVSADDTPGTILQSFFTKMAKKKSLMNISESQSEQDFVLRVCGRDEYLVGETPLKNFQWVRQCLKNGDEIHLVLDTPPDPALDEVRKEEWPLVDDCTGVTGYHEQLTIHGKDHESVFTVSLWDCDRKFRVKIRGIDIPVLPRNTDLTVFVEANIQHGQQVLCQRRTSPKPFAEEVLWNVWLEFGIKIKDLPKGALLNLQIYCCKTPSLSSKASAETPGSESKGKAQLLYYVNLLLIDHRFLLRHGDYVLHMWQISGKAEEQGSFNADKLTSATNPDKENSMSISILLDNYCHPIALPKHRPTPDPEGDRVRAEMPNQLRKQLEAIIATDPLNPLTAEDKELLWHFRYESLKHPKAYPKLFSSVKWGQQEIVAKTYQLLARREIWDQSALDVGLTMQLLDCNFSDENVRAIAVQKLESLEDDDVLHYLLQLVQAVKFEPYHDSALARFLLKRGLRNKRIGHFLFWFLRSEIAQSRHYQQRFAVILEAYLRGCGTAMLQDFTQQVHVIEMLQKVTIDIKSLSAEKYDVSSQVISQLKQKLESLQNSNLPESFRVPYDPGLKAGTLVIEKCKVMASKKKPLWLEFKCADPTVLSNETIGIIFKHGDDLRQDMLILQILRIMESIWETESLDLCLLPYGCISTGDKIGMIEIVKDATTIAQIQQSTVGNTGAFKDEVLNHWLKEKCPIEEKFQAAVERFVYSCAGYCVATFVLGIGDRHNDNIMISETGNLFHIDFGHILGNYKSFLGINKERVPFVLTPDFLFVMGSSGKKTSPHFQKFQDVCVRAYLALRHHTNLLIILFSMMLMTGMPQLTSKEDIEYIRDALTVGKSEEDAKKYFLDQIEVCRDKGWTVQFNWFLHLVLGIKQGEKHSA

T2 sequence (Q8BTI9 whole entry): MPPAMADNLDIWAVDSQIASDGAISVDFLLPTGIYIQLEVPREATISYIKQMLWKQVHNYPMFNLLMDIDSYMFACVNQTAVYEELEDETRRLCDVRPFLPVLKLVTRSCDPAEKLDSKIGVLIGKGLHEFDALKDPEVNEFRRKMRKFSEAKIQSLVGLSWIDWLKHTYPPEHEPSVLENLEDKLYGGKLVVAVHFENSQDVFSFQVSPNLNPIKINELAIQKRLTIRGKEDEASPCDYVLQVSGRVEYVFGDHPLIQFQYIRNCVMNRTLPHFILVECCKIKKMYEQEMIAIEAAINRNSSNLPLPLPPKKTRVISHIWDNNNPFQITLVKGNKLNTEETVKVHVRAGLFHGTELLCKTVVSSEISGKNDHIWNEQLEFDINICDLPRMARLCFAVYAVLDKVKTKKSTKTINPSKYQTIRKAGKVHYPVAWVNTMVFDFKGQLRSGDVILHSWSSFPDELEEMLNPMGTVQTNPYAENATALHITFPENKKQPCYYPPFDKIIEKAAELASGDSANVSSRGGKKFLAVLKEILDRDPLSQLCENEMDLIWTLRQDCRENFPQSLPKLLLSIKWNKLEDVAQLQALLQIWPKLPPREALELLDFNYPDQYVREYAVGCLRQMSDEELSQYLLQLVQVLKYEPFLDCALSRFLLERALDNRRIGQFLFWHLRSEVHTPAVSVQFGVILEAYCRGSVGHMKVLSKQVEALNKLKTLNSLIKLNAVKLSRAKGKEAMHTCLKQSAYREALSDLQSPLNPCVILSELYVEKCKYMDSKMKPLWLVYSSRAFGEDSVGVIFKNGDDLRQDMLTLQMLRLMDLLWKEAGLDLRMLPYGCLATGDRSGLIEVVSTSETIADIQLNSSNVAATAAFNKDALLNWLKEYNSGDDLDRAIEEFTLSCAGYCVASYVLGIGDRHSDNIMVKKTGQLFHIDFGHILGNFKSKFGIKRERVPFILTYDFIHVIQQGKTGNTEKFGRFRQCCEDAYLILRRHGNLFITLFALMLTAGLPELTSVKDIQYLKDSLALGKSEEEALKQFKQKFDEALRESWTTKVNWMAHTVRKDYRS
T2 sequence (P26450 whole entry partner): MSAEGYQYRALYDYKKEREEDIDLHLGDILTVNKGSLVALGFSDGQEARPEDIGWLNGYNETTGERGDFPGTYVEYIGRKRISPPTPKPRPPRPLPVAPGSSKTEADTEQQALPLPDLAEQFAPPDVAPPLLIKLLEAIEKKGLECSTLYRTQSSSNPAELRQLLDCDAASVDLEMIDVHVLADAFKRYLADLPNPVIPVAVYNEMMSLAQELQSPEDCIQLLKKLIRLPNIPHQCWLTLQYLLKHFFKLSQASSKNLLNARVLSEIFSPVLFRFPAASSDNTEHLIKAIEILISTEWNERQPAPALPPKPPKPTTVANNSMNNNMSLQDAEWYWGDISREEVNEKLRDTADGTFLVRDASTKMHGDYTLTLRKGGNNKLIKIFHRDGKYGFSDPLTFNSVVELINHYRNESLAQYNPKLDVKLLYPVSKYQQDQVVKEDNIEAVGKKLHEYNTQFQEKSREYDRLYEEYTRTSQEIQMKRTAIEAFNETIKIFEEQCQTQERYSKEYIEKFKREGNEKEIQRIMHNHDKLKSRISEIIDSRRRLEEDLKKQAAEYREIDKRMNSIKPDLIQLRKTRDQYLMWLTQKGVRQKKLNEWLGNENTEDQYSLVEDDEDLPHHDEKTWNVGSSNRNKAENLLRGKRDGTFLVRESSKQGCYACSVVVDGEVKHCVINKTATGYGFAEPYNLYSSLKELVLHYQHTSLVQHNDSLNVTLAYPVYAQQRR
T1 sequence (P42337 whole entry, canonical isoform): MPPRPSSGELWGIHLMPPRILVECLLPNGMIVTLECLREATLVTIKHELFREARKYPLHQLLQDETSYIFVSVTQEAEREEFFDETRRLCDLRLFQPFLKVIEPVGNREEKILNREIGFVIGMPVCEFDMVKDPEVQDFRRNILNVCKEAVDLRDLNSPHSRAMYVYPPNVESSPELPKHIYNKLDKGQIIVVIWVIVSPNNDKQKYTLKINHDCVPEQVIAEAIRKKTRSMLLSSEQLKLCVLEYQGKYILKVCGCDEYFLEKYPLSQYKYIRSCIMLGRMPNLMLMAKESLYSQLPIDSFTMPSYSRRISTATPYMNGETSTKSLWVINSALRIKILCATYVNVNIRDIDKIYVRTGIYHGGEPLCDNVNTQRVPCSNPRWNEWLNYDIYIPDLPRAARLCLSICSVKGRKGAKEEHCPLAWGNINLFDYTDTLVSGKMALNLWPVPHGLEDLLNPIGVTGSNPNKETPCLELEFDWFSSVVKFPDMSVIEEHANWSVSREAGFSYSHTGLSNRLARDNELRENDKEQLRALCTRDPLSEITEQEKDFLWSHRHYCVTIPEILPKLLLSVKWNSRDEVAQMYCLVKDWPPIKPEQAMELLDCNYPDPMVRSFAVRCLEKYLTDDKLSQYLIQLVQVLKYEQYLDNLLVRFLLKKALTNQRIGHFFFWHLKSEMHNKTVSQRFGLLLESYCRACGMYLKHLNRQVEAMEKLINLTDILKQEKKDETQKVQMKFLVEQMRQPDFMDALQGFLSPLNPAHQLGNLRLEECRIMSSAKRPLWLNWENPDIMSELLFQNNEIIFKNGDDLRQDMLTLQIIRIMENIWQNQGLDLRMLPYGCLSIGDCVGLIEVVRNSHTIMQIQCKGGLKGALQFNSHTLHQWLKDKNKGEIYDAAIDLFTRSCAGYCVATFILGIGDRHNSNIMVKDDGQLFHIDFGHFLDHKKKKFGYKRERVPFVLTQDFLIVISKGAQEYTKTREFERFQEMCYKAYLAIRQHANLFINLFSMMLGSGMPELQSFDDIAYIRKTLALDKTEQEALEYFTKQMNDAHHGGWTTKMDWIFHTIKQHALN
T1 sequence (P26450 whole entry partner, canonical isoform): as the sequence (P26450 whole entry partner) above

Row | Structure (SMILES) | EC50 (PI3Kα) [nM] | EC50 (PI3Kβ) [nM] | GI50 (AMO-1) [nM] | GI50 (CMK) [nM] | GI50 (HEL) [nM] | GI50 (HL-60) [nM] | GI50 (HT) [nM] | GI50 (JVM-2) [nM] | GI50 (MOLM-13) [nM] | GI50 (MOLM-14) [nM] | GI50 (MV4-11) [nM] | GI50 (NALM-6) [nM] | GI50 (NB4) [nM] | GI50 (NOMO-1) [nM] | GI50 (Namalwa) [nM] | GI50 (OCI-AML-2) [nM] | GI50 (OCI-AML-3) [nM] | GI50 (PF382) [nM] | GI50 (RPMI8226) [nM] | GI50 (Ramos(new)) [nM] | also measured
1 | CC[C@H](Nc1ncnc2[nH]cnc12)c1nc2cccc(F)c2c(=O)n1-c1ccccc1 [CAL-101, Idelalisib] | > 3000 | > 3000 | > 10000 | > 10000 | > 10000 | > 10000 | > 10000 | > 10000 | > 10000 | 7800 | > 10000 | > 10000 | > 10000 | > 10000 | > 10000 | > 10000 | 2400 | > 10000 | > 10000 | > 10000 | GI50 (Hs 505T): > 10000 nM; GI50 (MEC-1): > 10000 nM; GI50 (MEC-2): > 10000 nM; GI50 (SKM-1): > 10000 nM; GI50 (U937): > 10000 nM; GI50 (CLL patient primary cell; patient primary cell CLL16): > 10000 nM; GI50 (CLL patient primary cell; patient primary cell CLL18): > 10000 nM; GI50 (CLL patient primary cell; patient primary cell CLL19): > 10000 nM; GI50 (AML patient primary cell; AML1, patient primary cell AML1): > 10000 nM; GI50 (AML patient primary cell; AML3, patient primary cell AML3): > 10000 nM; GI50 (AML patient primary cell; patient primary cell AML2): 1010 nM; GI50 (AML patient primary cell; patient primary cell AML4): > 10000 nM; GI50 (AML patient primary cell; patient primary cell AML5): > 10000 nM; GI50 (AML patient primary cell; patient primary cell AML6): > 10000 nM; EC50 (PI3Kγ): 2320 nM
2 | CS(=O)(=O)N1CCN(Cc2cc3nc(-c4cccc5[nH]ncc45)nc(N4CCOCC4)c3s2)CC1 [GDC-0941] | 624 | 176 | 300 | 300 | > 10000 | 160 | 500 | > 10000 | 150 | 300 | 1400 | 390 | 1000 | 1000 | 390 | 2000 | 730 | 460 | 2600 | 2100 | GI50 (SKM-1): 540 nM; GI50 (U937): 1600 nM
